Substitutions are numbered along the chain they refer to.
Assays:
human PNPO F48A variant = biological target: T1, human PNPO F48A variant (Homo sapiens, UniProt Q9NVS9, F48A); test: PMP oxidation kinetics, F48A variant; details: 50 mM Tris–HCl pH 7.6, 37°C, 2 μM enzyme
T1 sequence (Q9NVS9 1-261 F48A): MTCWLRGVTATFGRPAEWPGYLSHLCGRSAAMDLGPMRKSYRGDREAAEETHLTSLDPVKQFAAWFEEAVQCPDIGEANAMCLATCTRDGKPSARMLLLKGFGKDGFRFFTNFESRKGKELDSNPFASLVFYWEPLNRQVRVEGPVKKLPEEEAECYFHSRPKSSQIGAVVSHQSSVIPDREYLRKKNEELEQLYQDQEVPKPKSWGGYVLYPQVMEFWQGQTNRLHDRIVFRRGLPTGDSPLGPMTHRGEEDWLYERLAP

human PNPO wild type = biological target: T2, human PNPO wild type (Homo sapiens, UniProt Q9NVS9)
T2 sequence (Q9NVS9 1-261): T1 sequence (Q9NVS9 1-261 F48A) with A48F

Cc1ncc(COP(=O)(O)O)c(CN)c1O [PMP, pyridoxamine 5′‐phosphate]
PMP oxidation kCAT (human PNPO F48A variant): 0.1785 ± 0.003 s⁻¹
PMP oxidation kCAT (human PNPO wild type; 50 mM Tris–HCl pH 7.6, 37°C, 2 μM enzyme): 0.135 ± 0.00283 s⁻¹
KM for PMP relative to KM for PNP (human PNPO wild type; Tris–HCl pH 7.6, 37°C): 25 fold

— article PMC10804683, “Identification of the pyridoxal 5′‐phosphate allosteric site in human pyridox(am)ine 5′‐phosphate oxidase” (Protein Science : A Publication of the Protein Society, 2024)
